Measurements: publication PMC9511441, “Semisynthetic teicoplanin derivatives with dual antimicrobial activity against SARS-CoV-2 and multiresistant bacteria” (Scientific Reports, 2022)
In brackets after ≈: the same amount, converted by molar mass. Like-named read-outs stand apart in the source and are kept apart here.

Legend:
SARS-CoV-2 = test: microbe, parasite or virus in culture; assay type: cell-based; conditions: for EC50: Severe acute respiratory syndrome coronavirus 2, Vero C1008, 72 h, Vero E6 cells, three days, XTT, read-out: EC50, CPE reduction, SARS-CoV-2 in Vero E6 cells
[1] = Cytotoxicity in mock-infected VeroE6 cells (XTT); assay type: cell-based, African green monkey; conditions: African green monkey; for CC50: mock-infected Vero E6 cells, three days, XTT
Calu-3 cells = test: Cytotoxicity in mock-infected Calu-3 cells (XTT); conditions: read-out: CC50, Calu-3 cells, three days
[2] = biological target: T1, human recombinant cathepsin L (Homo sapiens, UniProt P07711); test: biochemical; assay type: biochemical
T1 construct: made in house; host or cells: Escherichia coli
T1 sequence (P07711 114-333): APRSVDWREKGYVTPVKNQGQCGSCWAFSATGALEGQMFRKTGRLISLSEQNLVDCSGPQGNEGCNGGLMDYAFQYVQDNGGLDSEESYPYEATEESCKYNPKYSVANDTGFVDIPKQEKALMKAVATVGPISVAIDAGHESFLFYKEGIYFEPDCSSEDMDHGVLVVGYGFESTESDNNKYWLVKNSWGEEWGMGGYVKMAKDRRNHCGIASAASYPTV
Method: Cathepsin L inhibition was assessed as reported. Briefly, human recombinant cathepsin L was expressed in Escherichia coli[33]. Enzymatic activity was determined in 100 mM acetate buffer (pH 5.5) containing 0.1% PEG 8000, 5 mM cysteine and 1.5 mM EDTA. The enzyme was first activated in assay buffer for 5 min at 37 °C, after which it was added to the wells of a black microplate containing the Z-Phe-Arg-AMC substrate (Bachem) and compounds. Formation of the fluorescent cleavage product was monitored for 50 min at 37 °C, using a Tecan Infinit M1000 spectrofluorimeter set at 460 nm emission and 380 nm excitation wavelength. All assay mixtures contained 5% (v/v) DMSO and 0.01% Triton X-100 to prevent false-positive inhibition due to formation of compound aggregates. All measurements were performed in triplicate and repeated twice. The relative inhibition was calculated using the equation: Relative inhibition (%) = 100(1 − vi/vo), where vi and vo designate the reaction velocities in the presence and absence of inhibitor, respectively. IC50 values were determined from nine data points at different inhibitor concentrations.

HEL cells = test: Cytotoxicity in mock-infected HEL cells (MTS); assay type: cell-based, human; conditions: mock-infected HEL cells, MTS, mean of 2–3 tests
E. faecium = test: microbe, parasite or virus in culture; assay type: cell-based; conditions: Enterococcus faecium
Text: (§1) We determined the minimal inhibitory concentrations (MIC) of the teicoplanin conjugates for a large panel of Gram-positive bacterial strains, using vancomycin, unmodified teicoplanin, dalbavancin and oritavancin as reference compounds. […] The bacterial strains (see Suppl. Table S5 for all details) were selected to achieve maximum diversity of multidrug-resistance and include strains with known mechanisms of resistance to glycopeptides in clinical use. The S. epidermidis and S. haemolyticus strains resistant to dalbavancin and oritavancin were obtained in vitro from clinical isolates sensitive to the glycopeptide antibiotics.

S. epidermidis = test: microbe, parasite or virus in culture; assay type: cell-based; conditions: Staphylococcus epidermidis
Text: as §1

S. haemolyticus = test: MIC, broth microdilution; assay type: cell-based; conditions: Staphylococcus haemolyticus
Text: as §1

S.pyogenes = test: MIC, broth microdilution; assay type: cell-based; conditions: Streptococcus pyogenes
Text: as §1

S. aureus = test: MIC, broth microdilution; assay type: cell-based; conditions: Staphylococcus aureus
Text: as §1

E. faecalis = test: MIC, broth microdilution; assay type: cell-based; conditions: Enterococcus faecalis
Text: as §1

VeroE6 cells = test: Cytotoxicity in mock-infected VeroE6 cells (XTT); assay type: cell-based, African green monkey; conditions: mock-infected Vero E6 cells, three days, XTT
SARS-CoV-2 pseudovirus [3] = test: microbe, parasite or virus in culture; assay type: cell-based; conditions: A549-AT cells, TMPRSS2-mediated uptake
SARS-CoV-2 pseudovirus [4] = test: microbe, parasite or virus in culture; assay type: cell-based; conditions: cathepsin-dependent endosomal pathway
[5] = system: Klebsiella pneumoniae ST258 clone K 160/09; test: MIC against Gram-negative strain; conditions: Klebsiella pneumoniae
[6] = system: Escherichia coli ATCC 25218; test: MIC against Gram-negative strain; conditions: ATCC25218
[7] = system: Pseudomonas aeruginosa ATCC 27853; test: MIC against Gram-negative strain; conditions: ATCC27853
[8] = system: Acinetobacter baumannii ATCC BAA1605; test: MIC against Gram-negative strain; conditions: Acinetobacter baumannii, ATCCBAA1605
[9] = read-out: Cathepsin L IC50, pH 5.5, Z-Phe-Arg-AMC substrate

SMILES: OCCCC(F)(F)C(F)(F)C(F)(F)C(F)(F)C(F)(F)C(F)(F)F [Compound 9]
- EC50 (SARS-CoV-2): > 100 µM
- Reduction of the CPE of SARS-CoV-2 in VeroE6 cells (in words) (SARS-CoV-2): not active
- CC50 [1]: > 100 µM

SMILES: OCCCC(F)(F)C(F)(F)C(F)(F)C(F)(F)C(F)(F)C(F)(F)C(F)(F)C(F)(F)F [Compound 13]
- EC50 (SARS-CoV-2): > 100 µM
- Reduction of the CPE of SARS-CoV-2 in VeroE6 cells (in words) (SARS-CoV-2): not active
- CC50 [1]: > 100 µM

SMILES: CC(=O)N[C@H]1[C@H](O[C@@H]2c3ccc(c(Cl)c3)Oc3cc4cc(c3O)Oc3ccc(cc3Cl)C[C@H]3NC(=O)[C@H](NC(=O)CCC(F)(F)C(F)(F)C(F)(F)C(F)(F)C(F)(F)C(F)(F)C(F)(F)C(F)(F)F)c5ccc(O)c(c5)Oc5cc(O)cc(c5)[C@H](NC3=O)C(=O)N[C@H]4C(=O)N[C@H]3C(=O)N[C@@H]2C(=O)N[C@H](C(=O)O)c2cc(O)cc(O)c2-c2cc3ccc2O)O[C@H](CO)[C@@H](O)[C@@H]1O [Compound 5]
- CC50 (Calu-3 cells): > 100 µM
- IC50 [2, 9]: 52 ± 1 µM
- CC50 (HEL cells): > 100 µM
- MIC (E. faecium; read-out: Average MIC value, E. faecium VAN^R,TEI^R/VanA, 8 strains): > 8 µg/mL
- MIC (E. faecium; read-out: Average MIC value, E. faecium VAN^S, TEI^S, 1 strain): 0.25 µg/mL (≈ 0.133 µM)
- MIC (E. faecium; read-out: MIC value, E.faecium E335, VAN,TEI,LNZ/VanA): > 8 µg/mL
- MIC (E. faecium; read-out: MIC value, E.faecium E355, VAN,TEI,LNZ/VanA): > 8 µg/mL
- MIC (E. faecium; read-out: MIC value, E.faecium E832, VAN,TEI,LNZ/VanA): > 8 µg/mL
- MIC (E. faecium; read-out: MIC value, E.faecium E854, VAN,TEI,LNZ/VanA): > 8 µg/mL
- MIC (E. faecium; read-out: MIC value, E.faecium E859, VAN,TEI,LNZ/VanA): > 8 µg/mL
- MIC (E. faecium; read-out: MIC value, E.faecium E1114, VAN,TEI,LNZ/VanA): > 8 µg/mL
- MIC (E. faecium; read-out: MIC value, E.faecium E1131, VAN,TEI,LNZ/VanA): > 8 µg/mL
- MIC (E. faecium; read-out: MIC value, E.faecium E1132, VAN,TEI,LNZ/VanA): > 8 µg/mL
- MIC (E. faecium; read-out: MIC value, E.faecium TX0016): 0.25 µg/mL (≈ 0.133 µM)
- MIC (S. epidermidis; read-out: Average MIC value, S. epidermidis mecA, 6 strains): 1.4 µg/mL (≈ 0.746 µM)
- MIC (S. epidermidis; read-out: MIC value, S.epidermidis ORI_R1, mecA): 4 µg/mL (≈ 2.13 µM)
- MIC (S. epidermidis; read-out: MIC value, S.epidermidis ORI_R2, mecA): 1 µg/mL (≈ 0.533 µM)
- MIC (S. epidermidis; read-out: MIC value, S.epidermidis ORI_R3, mecA): 2 µg/mL (≈ 1.07 µM)
- MIC (S. epidermidis; read-out: MIC value, S.epidermidis ORI_R4, mecA): 0.5 µg/mL (≈ 0.266 µM)
- MIC (S. epidermidis; read-out: MIC value, S.epidermidis TEI_R1, mecA): 0.5 µg/mL (≈ 0.266 µM)
- MIC (S. epidermidis; read-out: MIC value, S.epidermidis TEI_R2, mecA): 0.5 µg/mL (≈ 0.266 µM)
- MIC (S. haemolyticus; S. haemolyticus mecA, 6 strains, read-out: Average MIC value): 7 µg/mL (≈ 3.73 µM)
- MIC (S. haemolyticus; S.haemolyticus DALB_R1, mecA, read-out: MIC value): 8 µg/mL (≈ 4.26 µM)
- MIC (S. haemolyticus; S.haemolyticus DALB_R2, mecA, read-out: MIC value): 8 µg/mL (≈ 4.26 µM)
- MIC (S. haemolyticus; S.haemolyticus DALB_R3, mecA, read-out: MIC value): 8 µg/mL (≈ 4.26 µM)
- MIC (S. haemolyticus; S.haemolyticus DALB_R4, mecA, read-out: MIC value): 8 µg/mL (≈ 4.26 µM)
- MIC (S. haemolyticus; S.haemolyticus DALB_R5, mecA, read-out: MIC value): 2 µg/mL (≈ 1.07 µM)
- MIC (S. haemolyticus; S.haemolyticus ORI_R1, mecA, read-out: MIC value): 8 µg/mL (≈ 4.26 µM)
- MIC (S.pyogenes; read-out: MIC value, S.pyogenes H232): 0.25 µg/mL (≈ 0.133 µM)
- MIC (S.pyogenes; read-out: MIC value, S.pyogenes H550): 0.25 µg/mL (≈ 0.133 µM)
- MIC (S.pyogenes; read-out: MIC value, S.pyogenes H578): 0.25 µg/mL (≈ 0.133 µM)
- MIC (S. aureus; ATCC 29213 / MSSA, read-out: MIC value, S. aureus ATCC29213, MSSA): 1 µg/mL (≈ 0.533 µM)
- MIC (S. aureus; MRSA / USA300, read-out: MIC value, S. aureus USA300, CA-MRSA): 4 µg/mL (≈ 2.13 µM)
- MIC (S. aureus; MRSA, read-out: Average MIC value, S. aureus CA-MRSA, 1 strain): 4 µg/mL (≈ 2.13 µM)
- MIC (S. aureus; MRSA, read-out: Average MIC value, S. aureus MRSA, 7 strains): 2.57 µg/mL (≈ 1.37 µM)
- MIC (S. aureus; MRSA, read-out: MIC value, S. aureus 73OL, MRSA): 2 µg/mL (≈ 1.07 µM)
- MIC (S. aureus; MRSA, read-out: MIC value, S. aureus 214OL, MRSA): 4 µg/mL (≈ 2.13 µM)
- MIC (S. aureus; MRSA, read-out: MIC value, S. aureus 1041OL, MRSA): 4 µg/mL (≈ 2.13 µM)
- MIC (S. aureus; MRSA, read-out: MIC value, S. aureus A6918, MRSA): 2 µg/mL (≈ 1.07 µM)
- MIC (S. aureus; MRSA, read-out: MIC value, S. aureus A6919, MRSA): 2 µg/mL (≈ 1.07 µM)
- MIC (S. aureus; MRSA, read-out: MIC value, S. aureus Mu50, MRSA): 2 µg/mL (≈ 1.07 µM)
- MIC (S. aureus; MRSA, read-out: MIC value, S. aureus N315, MRSA): 2 µg/mL (≈ 1.07 µM)
- MIC (S. aureus; MSSA / NEWMAN, read-out: MIC value, S. aureus Newman, MSSA): 2 µg/mL (≈ 1.07 µM)
- MIC (S. aureus; MSSA, read-out: Average MIC value, S. aureus MSSA, 4 strains): 1.75 µg/mL (≈ 0.933 µM)
- MIC (S. aureus; MSSA, read-out: MIC value, S. aureus MSSA476, MSSA): 2 µg/mL (≈ 1.07 µM)
- MIC (S. aureus; MSSA, read-out: MIC value, S. aureus SA564, MSSA): 2 µg/mL (≈ 1.07 µM)
- MIC (E. faecalis; read-out: Average MIC value, E. faecalis VAN^R,TEI^R/VanA, 1 strain): > 8 µg/mL
- MIC (E. faecalis; read-out: Average MIC value, E. faecalis VAN^S, TEI^S, 2 strains): 0.25 µg/mL (≈ 0.133 µM)
- MIC (E. faecalis; read-out: MIC value, E.faecalis JH2-2): 0.25 µg/mL (≈ 0.133 µM)
- MIC (E. faecalis; read-out: MIC value, E.faecalis OG1RF): 0.25 µg/mL (≈ 0.133 µM)
- MIC (E. faecalis; read-out: MIC value, E.faecalis V583, VAN,TEI/VanA): > 8 µg/mL
- CC50 (VeroE6 cells): > 100 µM

SMILES: CCCCCCCCOC1C(OC)OC(COCCOCCOCCOCCOCc2cn(C3C(=O)NC4Cc5ccc(c(Cl)c5)Oc5cc6cc(c5O)Oc5ccc(cc5Cl)C(OC5OC(CO)C(O)C(O)C5NC(C)=O)C5NC(=O)C(NC(=O)C6NC(=O)C(NC4=O)c4cc(O)cc(c4)Oc4cc3ccc4O)c3ccc(O)c(c3)-c3c(O)cc(O)cc3C(C(=O)O)NC5=O)nn2)C(O)C1OCCCCCCCC (stereo not drawn) [Compound 1]
- CC50 (Calu-3 cells): 75 ± 9 µM
- IC50 [2, 9]: 49 ± 1 µM
- CC50 (HEL cells): > 100 µM
- Inhibition of pseudovirus entry in A549-AT cells (in words) (SARS-CoV-2 pseudovirus [3]): active, though less potent
- Inhibition of pseudovirus entry in Vero cells (in words) (SARS-CoV-2 pseudovirus [4]): highly effective
- CC50 (VeroE6 cells): > 100 µM

SMILES: N=C(N)NCCSCCCOc1cc(C(=O)OCc2ccccc2)cc(OCCCSCCNC(=N)N)c1OCCCSCCNC(=N)N [Compound 24]
- IC50 [2]: 18 ± 1 µM
- MIC [5]: 128 µg/mL (≈ 173 µM)
- MIC [6]: 3.2 µg/mL (≈ 4.34 µM)
- MIC [7]: 25.6 µg/mL (≈ 34.7 µM)
- MIC [8]: 25.6 µg/mL (≈ 34.7 µM)
- EC50 (SARS-CoV-2): > 100 µM
- Reduction of the CPE of SARS-CoV-2 in VeroE6 cells (in words) (SARS-CoV-2): not active
- CC50 at 3 days [1]: 33.2 µM
